# Source: publication PMC10373420, “A high-throughput screening system for SARS-CoV-2 entry inhibition, syncytia formation and cell toxicity” (Biological Procedures Online, 2023)
# “Also recorded” adds a separate entry of the source. Counter-ions that a name gives are not always drawn. Like-named read-outs stand apart in the source and are kept apart here. Numbered stars: 1 amine (or outer) side, 2 acyl side, 3 side chain; on linkers, the order of the positions; unused ones are H or OH. Bridge positions count the residues as written; N and C are the ends. Square brackets hold non-standard residues; d marks the D form. Peptide text beside a SMILES is read from it. I, II: the chains in the order shown. Actinocin(9to1) = Cc1c2oc3c(C)ccc(C(=O)[*:1])c3nc-2c(C(=O)[*:2])c(N)c1=O; NMeV = CN[C@H](C(=O)O)C(C)C; Sar = CNCC(=O)O
# Assays:
# [1] = system: VSV-eGFP-SARS-CoV-2; assay: microbe, parasite or virus in culture; assay type: cell-based; details: for inhibition at 1 µM: read-out: inhibition of VSV-eGFP-SARS-CoV-2 infection, 1 μM; for inhibition at 5 µM: read-out: inhibition of VSV-eGFP-SARS-CoV-2 infection, 5 μM; for inhibition at 10 µM: read-out: inhibition of VSV-eGFP-SARS-CoV-2 infection, 10 μM; for IC50: read-out: IC50 against VSV-eGFP-SARS-CoV-2 infection
# [2] = system: ACE2-Spike dependent syncytia formation; assay type: cell-based, human; details: IC50 concentration; for initiation of pseudoviral infection: control 7 hpi; for initiation of syncytia formation: imaging up to 24 hpi, control 12 hpi
# [3] = system: rVSV-G-GFP; assay type: cell-based, vesicular stomatitis virus (VSV)
# [4] = system: VSV-eGFP-SARS-CoV-2; assay type: cell-based; details: 1 μM
# [5] = system: SiHa ACE2 Cerulean H2B mCherry cells
# [6] = Severe acute respiratory syndrome coronavirus 2, SiHa
Compound,"inhibition at 1 µM [1, 6]","inhibition at 5 µM [1, 6]","inhibition at 10 µM [1, 6]",initiation of pseudoviral infection [2],initiation of syncytia formation [2],rVSV-G-GFP infection inhibition (in words) [3],also measured
CC1=C2C(=CC(C)(C)[C@@H]2O)C(=O)[C@](C)(O)C12CC2 [Illudin M],31%,54%,73%,,,,
CC(=O)O[C@H]1C[C@H](O[C@H]2[C@@H](O)C[C@H](O[C@H]3[C@@H](O)C[C@H](OC4CC[C@@]5(C)[C@H](CC[C@@H]6[C@@H]5CC[C@]5(C)[C@@H](C7=CC(=O)OC7)CC[C@]65O)C4)O[C@@H]3C)O[C@@H]2C)O[C@H](C)[C@H]1O[C@@H]1O[C@H](CO)[C@@H](O)[C@H](O)[C@H]1O (some centres unmarked) [Lanatoside A],81%,97%,98%,,,,
CC(=O)O[C@@]1(C)C[C@@H]([C@H](O)CC2CC(=O)NC(=O)C2)C(=O)[C@@H](C)C1 [Acetoxycycloheximide],,100%,100%,10 hpi,21 hpi,moderate level of inhibition,"IC50 [1, 6]: 640 nM"
"COc1cccc2c1C(=O)c1c(O)c3c(c(O)c1C2=O)C[C@@](O)(C(C)=O)C[C@@H]3O[C@H]1C[C@H](N)[C@H](O)[C@H](C)O1 [Daunorubicin hydrochloride, reference compound]",-16%,40%,41%,,,,
"CC[C@]1(O)C[C@H]2CN(CCc3c([nH]c4ccccc34)[C@@](C(=O)OC)(c3cc4c(cc3OC)N(C=O)[C@H]3[C@@](O)(C(=O)OC)[C@H](OC(C)=O)[C@]5(CC)C=CCN6CC[C@]43[C@@H]65)C2)C1 [Vincristine sulfate, reference compound]",32%,38%,39%,,,,
CO[C@H]1/C=C\C=C(/C)C(=O)NC2=CC(=O)C(N)=C(C[C@@H](C)C[C@H](OC)[C@H](O)[C@@H](C)/C=C(\C)[C@@H]1OC(N)=O)C2=O [17-Aminodemethoxygeldanamycin],,,,8 hpi,12 hpi,moderate inhibition,inhibition of VSV-eGFP-SARS-CoV-2 infection after pre-treatment of cells [4]: 50%; inhibitory activity after preincubation of cells with natural product (in words) [4]: having inhibitory activity; also recorded: moderate level of viral entry inhibition; IC50 [1]: 560 nM
CSC[S@+]([O-])C[C@H](CO)NC(=O)/C=C/c1c(C)[nH]c(=O)[nH]c1=O [Sparsomycin],-2%,80%,94%,,,,
"COc1ccc(/C=C/C(=O)c2ccccc2)cc1 [4-Methoxychalcone, reference compound]",-11%,-7%,26%,,,,
C[C@H](N)C(=O)N[C@@H]1[C@H]2C(=C(O)C[C@@H](O)[C@@H]2O)C(=O)O[C@]1(C)C(Cl)Cl [Bactobolin],56%,99%,100%,,,,
COC1=C(N)C(=O)c2nc(-c3nc(C(=O)O)c(C)c(-c4ccc(OC)c(OC)c4O)c3N)ccc2C1=O [Streptonigrin],,100%,100%,8 hpi,12 hpi,could inhibit the VSVG infection; also recorded: rVSV-G-GFP inhibition,"toxicity at IC50 dose [5]: minimum toxicity; IC50 [1, 6]: 380 nM"
"C[C@@H]1O[C@@H](O[C@@H]2C=C3CC[C@@H]4[C@H](CC[C@]5(C)[C@@H](c6ccc(=O)oc6)CC[C@]45O)[C@@]3(C)CC2)[C@H](O)[C@H](O)[C@H]1O [Proscillaridin, reference compound]",,98%,99%,8 hpi,16 hpi,moderate inhibition,"IC50 [1, 6]: 220 nM"
C[C@H]1CCC/C=C/[C@@H]2C[C@H](O)C[C@H]2[C@H](O)/C=C/C(=O)O1 [Brefeldin A],66%,82%,86%,,,,
"Cc1c2oc3c(C)ccc(C(=O)N[C@@H]4C(=O)N[C@H](C(C)C)C(=O)N5CCC[C@H]5C(=O)N(C)CC(=O)N(C)[C@@H](C(C)C)C(=O)O[C@@H]4C)c3nc-2c(C(=O)N[C@@H]2C(=O)N[C@H](C(C)C)C(=O)N3CCC[C@H]3C(=O)N(C)CC(=O)N(C)[C@@H](C(C)C)C(=O)O[C@@H]2C)c(N)c1=O [Dactinomycin, reference compound] (I: T[dV]P[Sar][NMeV] / II: T[dV]P[Sar][NMeV]; ester I:1-I:C, II:1-II:C; linker I:N-II:N via Actinocin(9to1))",39%,56%,58%,,,,
Casirivimab,,,,,,,inhibition of VSV-eGFP-SARS-CoV-2 infection (in words) [1]: inhibition of VSV-eGFP-SARS-CoV-2 infection; IC50 [1]: 0.045 nM
CC[C@](C)(O)C(=O)O[C@H]1C(=O)O[C@@H]2C[C@H]3C(C)=C[C@H](O)[C@@H](O)[C@]3(C)[C@H]3[C@]4(O)OC[C@]32[C@@H]1[C@@H](C)[C@H]4O [Glaucarubin],-7%,-1%,33%,,,,
C[C@@H]1O[C@@H](O[C@@H]2C=C3CC[C@@H]4[C@H](CC[C@]5(C)[C@@H](c6ccc(=O)oc6)CC[C@]45O)[C@@]3(C)CC2)[C@H](O)[C@H](O)[C@H]1O[C@@H]1O[C@H](CO)[C@@H](O)[C@H](O)[C@H]1O [Scillaren A],,,,8 hpi,22 hpi,moderate level of inhibition,IC50 [1]: 410 nM
CCCCCC1=C/C(=C/c2[nH]c(-c3ccc[nH]3)cc2OC)N=C1C [Prodigiosin],86%,98%,100%,,,,
CC[C@H](C)[C@H]1NC(=O)[C@@H](NC(=O)[C@@H](CC(C)C)N(C)C(=O)[C@@H]2CCCN2C(=O)C(C)O)[C@@H](C)OC(=O)[C@H](Cc2ccc(OC)cc2)N(C)C(=O)[C@@H]2CCCN2C(=O)[C@H](CC(C)C)NC(=O)[C@@H](C)C(=O)[C@H](C(C)C)OC(=O)C[C@@H]1O (some centres unmarked) [Didemnin B],,100%,100%,8 hpi,no syncytia was observed,could inhibit the VSVG infection; also recorded: rVSV-G-GFP inhibition,"inhibitory activity after preincubation of cells with natural product (in words) [4]: having inhibitory activity; also recorded: could inhibit viral infection; cellular toxicity (H2B mCherry nuclear condensation) [5]: exhibited toxicity at higher doses; toxicity at IC50 dose [5]: minimum toxicity; initiation of syncytia formation ([2]; listed as Didemin B): inhibits syncytia formation; IC50 [1, 6]: 190 nM"
CC(=O)O[C@H]1C[C@H](O[C@H]2[C@@H](O)C[C@H](O[C@H]3[C@@H](O)C[C@H](O[C@H]4CC[C@@]5(C)[C@H](CC[C@@H]6[C@@H]5C[C@@H](O)[C@]5(C)[C@@H](C7=CC(=O)OC7)CC[C@]65O)C4)O[C@@H]3C)O[C@@H]2C)O[C@H](C)[C@H]1O[C@@H]1O[C@H](CO)[C@@H](O)[C@H](O)[C@H]1O [Allocor],49%,89%,92%,,,,
